From patent US11208433B2, “Peptide for inhibiting skin inflammation and composition for preventing or treating skin inflammation containing the same” (AVIXGEN Inc., priority 2017, dated 2021) come the findings set out here.

For test [1], the system named is atopic mouse skin tissues. The experiment in a line: Immunohistochemical staining of atopic mouse skin tissue (angiogenic marker, inflammatory cells, keratin). Type of test: in vivo, NC/Nga mouse. The note with it: atopic mouse skin tissue, also similar to prednisolone treated group. Here is the method: (§1) After the ear auricle of the NC/Nga mouse was shaved with a razor, the epilating agent was applied in an appropriate amount for the complete depilation. After the epilating agent was wiped off, Then, 100 mg of the AD-inducing reagent shown in Table 2 as below was uniformly applied to the ear auricle using a micropipette tip, thereby inducing atopic dermatitis for the first time.
(§2) After shaving with a razor for necessary, 150 μL of a 4% SDS aqueous solution was uniformly applied to the ear auricle using a micropipette, dried with a cold air using a dryer, and air-dried for about 2 to 3 hours. Then, 100 mg of the same AD-inducing reagent was uniformly applied to the ear auricle using a micropipette tip, thereby inducing atopic dermatitis after 2 times. All treatments were carried out twice a week to be 6 times for a total of 3 weeks, thereby producing atopic dermatitis animal model.
(§3) The mice of groups 2 to 5 were obtained by the atopic dermatitis animal model prepared in Experimental Method 3 as described above.
(§4) The experimental substance and the control substance were uniformly applied to the ear auricle using a micropipette tip. From the day of the experimental substance administration (Day 0) to the day of the autopsy (Day 14), they were administered once a day for 2 weeks.
Atopy mouse skin tissues were immersed in Xylene three times for 5 minutes, 100% ethanol for 2 minutes, 95% ethanol for 2 minutes, 90% ethanol for 2 minutes, 70% ethanol for 2 minutes and D.W. for 2 minutes to remove paraffin and to perform hydration. After washing with PBS, they were treated with 0.2% Triton X-100 to increase cell permeability. After re-washing with PBS, they were reacted with blocking solution, 3% bovine serum albumin, for 1 hour. For inflammatory cells and keratin staining, they were reacted with F4/80 (sc-377009, Santa Cruz) and cytokeratin (NB600-579, NOVUSBIO) antibodies, respectively, at room temperature for 2 hours. After washing with PBS, they were treated with Texas Red (ab6787, Abcam) secondary antibody and reacted at room temperature for 60 minutes. The mounting solution was dropped on the tissue of the slide. Then, the tissue was covered with a cover slide, and the sample was observed under a fluorescence microscope. For analysis of the degree of angiogenesis, the atopic skin tissue was reacted with FITC-conjugated isolectin B4 (L2895, Sigma), a blood vessel marker at room temperature for 2 hours. The mounting solution was dropped on the tissue of the slide. Then, the tissue was covered with a cover slide, and the sample was observed under a fluorescence microscope
The mouse skin tissues stained with the respective markers were photographed using a fluorescence microscope (DMil, Leica, Germany), and fluorescence intensities were quantitatively analyzed using an ImageJ program (NIH, Bethesda, Md., USA).

In test [2] the test system is histamine. The experiment in a line: ELISA analysis of serum histamine in atopic dermatitis animal model. In kind it is in vivo, NC/Nga mouse. The settings on record: day of autopsy (Day 14). Here is the method:
as §1, §2, §3, §4
On the day of the autopsy, blood samples were collected from the abdominal vein using a syringe. The serum isolated from the blood was analyzed for IgE and histamine using an ELISA kit.
In general terms: ELISA stands for enzyme-linked immunosorbent assay.

Test [3] concerns atopic dermatitis animal model. The experiment in a line: Ear thickness measurement in atopic dermatitis animal model. The settings on record: FIG. 2. Type of test: in vivo, NC/Nga mouse. Here is the method:
After the ear auricle of the NC/Nga mouse was shaved with a razor, the epilating agent was applied in an appropriate amount for the complete depilation. After the epilating agent was wiped off, Then, 100 mg of the AD-inducing reagent shown in Table 2 as below was uniformly applied to the ear auricle using a micropipette tip, thereby inducing atopic dermatitis for the first time. After shaving with a razor for necessary, 150 μL of a 4% SDS aqueous solution was uniformly applied to the ear auricle using a micropipette, dried with a cold air using a dryer, and air-dried for about 2 to 3 hours. Then, 100 mg of the same AD-inducing reagent was uniformly applied to the ear auricle using a micropipette tip, thereby inducing atopic dermatitis after 2 times. All treatments were carried out twice a week to be 6 times for a total of 3 weeks, thereby producing atopic dermatitis animal model. The mice of groups 2 to 5 were obtained by the atopic dermatitis animal model prepared in Experimental Method 3 as described above. The experimental substance and the control substance were uniformly applied to the ear auricle using a micropipette tip. From the day of the experimental substance administration (Day 0) to the day of the autopsy (Day 14), they were administered once a day for 2 weeks. Ear thickness was measured for each individual by calipers, and the ear area was photographed. Ear thickness measurement and photographing were performed once a week on the day of starting the experimental substance administration and thereafter.

Test [4] deals with HeLa cells. Kind of test: ACP-tetrapeptide cell membrane permeation experiment. The note with it: 3, 15 and 30 μM ACP-tetrapeptide-FITC for 3 hours, fluorescence microscopy, FIG. 14. Type of test: cell-based. Here is the method:
HeLa cells were inoculated in a 12-well plate containing glass at a density of 1×10^5 cells/well and cultured for 24 hours to attach the cells to the glass. Then, HeLa cells were treated with 3 μM ACP-FITC peptide and 3, 15, and 30 μM ACP-tetrapeptide-FITC peptide for 3 hours. After 3 hours, the cells were washed three times with PBS. Then, the cells were fixed with 3.7% formaldehyde for 20 minutes and treated with PBS containing 0.2% Triton X-100 to increase cell permeability. Then, the cells were blocked with 3% BSA for 1 hour, reacted with a tubulin antibody (Santa Cruz Biotechnology, U.S.A.) at room temperature for 2 hours, and washed three times with PBS. Next, the cells were treated with a Cy3-conjugated secondary antibody (Jackson ImmunoResearch, USA) at room temperature for 1 hour, washed twice with PBS, and then stained with 4′,6-diamidino-2-phenylindole (DAPI) for 10 minutes. Finally, the HeLa cell-attached glass was removed and mounted on a sliding glass. The cells were observed under a fluorescence microscope (DMil, Leica, Germany).

Test [5] relates to IgE. The experiment in a line: ELISA analysis of serum IgE in atopic dermatitis animal model. The settings on record: day of autopsy (Day 14).
The test system of test [6] is atopic dermatitis animal model. Kind of test: Histopathological examination of ear epidermis and dermis (H&E scoring). Type of test: in vivo, NC/Nga mouse. The note with it: infiltration by inflammatory cells, p<0.05, FIGS. 8 and 9. Here is the method: After the ear auricle of the NC/Nga mouse was shaved with a razor, the epilating agent was applied in an appropriate amount for the complete depilation. After the epilating agent was wiped off, Then, 100 mg of the AD-inducing reagent shown in Table 2 as below was uniformly applied to the ear auricle using a micropipette tip, thereby inducing atopic dermatitis for the first time. After shaving with a razor for necessary, 150 μL of a 4% SDS aqueous solution was uniformly applied to the ear auricle using a micropipette, dried with a cold air using a dryer, and air-dried for about 2 to 3 hours. Then, 100 mg of the same AD-inducing reagent was uniformly applied to the ear auricle using a micropipette tip, thereby inducing atopic dermatitis after 2 times. All treatments were carried out twice a week to be 6 times for a total of 3 weeks, thereby producing atopic dermatitis animal model. The mice of groups 2 to 5 were obtained by the atopic dermatitis animal model prepared in Experimental Method 3 as described above. The experimental substance and the control substance were uniformly applied to the ear auricle using a micropipette tip. From the day of the experimental substance administration (Day 0) to the day of the autopsy (Day 14), they were administered once a day for 2 weeks. On the day of the autopsy, ears were removed for the histopathological examination and fixed in 10% neutral buffered formalin solution. The fixed tissues were subject to the general tissue treatment such as reprofiling, dehydration, paraffin embedding, and dissection, thereby preparing specimens for histopathological examination. Then, hematoxylin and eosin (H & E) and TUNEL assays were performed on histopathologic specimens, and the light microscopy (Olympus BX53, Japan) was used to observe histopathologic changes. In the histopathologic evaluation using hematoxylin and eosin staining slides, in order to compare the degree of the lesion with the induced control group, the most severe lesion was selected, and then the hypertrophy, hyperkeratosis and infiltration by inflammatory cells were evaluated in the epidermis. In the dermis, the infiltration by inflammatory cells was evaluated. Scoring criteria are the same as 0 (no symptoms), 1 (mild), 2 (moderate), and 3 (severe) (Taniguchi Y et al 2003).

Turning to “VKCFNCGKEGHTARNCRAPRKKGCWKCGKEGHQMKDCTERLYE (ACP-tetrapeptide) [ACP cell penetrating peptide linked at the N-terminal of the tetrapeptide]”, the “angiogenesis (Isolectin B4 staining)” value in test [1] (FIG. 10) was “lower than that of the inducted control group”. Besides, in test [1] (FIG. 11), the “inflammatory cell inflow (F4/80 staining)” value is “lower than that of the inducted control group”. In addition, in test [1] (FIG. 12), the “keratinization and fibrosis (cytokeratin staining)” value is recorded as “lower than that of the inducted control group”. For the same sequence, the “histamine level compared with prednisolone treated group” value in test [2] (FIG. 7) is reported as “lower than that of the prednisolone treated group”. Moreover, the “histamine level compared with group 2 (induced control)” value in test [2] (p<0.001 or p<0.01, FIG. 7) is “significantly lower”. Further, in test [3] (7th and 14th day after administration, tetrapeptide 0.622, ACP-tetrapeptide 4.987, prednisolone 50 μg/ear once a day, p<0.001 or p<0.01), the “ear thickness compared with induced control group (group 2)” value is given as “significantly thinner”. Moreover, the “ear thickness compared with normal control group (group 1)” value in test [3] (14th day after administration, p<0.001) is recorded as “significantly thicker”. Further, in test [4], the “cell membrane permeability (transfer into cells)” value is reported as “transferred into the cells through ACP in a concentration-dependent manner without aggregation in the cell membrane”. The “IgE level compared with prednisolone treated group” value in test [5] (FIG. 7) is given as “lower than that of the prednisolone treated group”. For the same sequence, in test [5] (p<0.001 or p<0.01, FIG. 7), the “IgE level compared with group 2 (induced control)” value is on record as “significantly lower” and the “IgE level compared with normal control group” value is recorded as “significantly higher”. Also, the “epidermis score level compared with group 2” value in test [6] (hypertrophy, hyperkeratosis) is recorded as “significantly lower”. Besides, the “dermis score level compared with group 2” value in test [6] is recorded as “significantly lower”.
